In patent US11091531B2, “Antigen-specific helper T-cell receptor genes” (International Institute of Cancer Immunology, Inc., priority 2012, dated 2021):
Peptide text beside a SMILES is read from it.

Test system: HLA-DPB1*05:01-positive TF-1 cells
Assay: 51Cr releasing assay with target cells pretreated with granzyme-inhibitor
Type: cell-based, human
Conditions: target cells pretreated with 100 μM for 2 hours; p<0.05; FIG. 4F
Protocol: To confirm whether the cytotoxic activity of the WT1332-TCR-transduced CD4^+ T-cells was dependent on the granzyme B/perforin pathway, HLA-DPB1*05:01-positive TF-1 cells pretreated with 100 μM of a granzyme-inhibitor, Ac-IETD-Cho, were used as target cells. The HLA-DPB1*05:01-positive TF-1 cells were pretreated with 100 μM of Ac-IETD-Cho or DMSO (control) for 2 hours, then labeled with ^51Cr, and incubated with WT1332-TCR-transduced CD4^+ T-cells, and ^51Cr releasing assay was performed.

CC[C@H](C)[C@H](NC(C)=O)C(=O)N[C@@H](CCC(=O)O)C(=O)N[C@H](C(=O)N[C@H](C=O)CC(=O)O)[C@@H](C)O [Ac-IETD-Cho] (Ac-IETD-aldehyde)
cytotoxic activity of WT1332-TCR-transduced CD4+ T-cells on pretreated target cells compared with DMSO: markedly lower
